Laboratory results as given in ChEMBL document CHEMBL6182889, “Discovery of the first-in-class DOT1L PROTAC degrader” (Eur J Med Chem, 2025).
Calls of active or inactive are those of the source. The rule behind the calls is not given here.

Experiments:
[1] = target: T1, von Hippel-Lindau disease tumor suppressor/Histone-lysine N-methyltransferase, H3 lysine-79 specific (Homo sapiens, UniProt Q8TEK3+P40337); assay: PROTAC activity at VHL/DOT1L in mixed-lineage leukemia rearranged (MLL-r) human THP-1 cells assessed as maximal induction of DOT1L degradation incubated for 24 hrs by western blot analysis relative to control; assay type: cell-based
Target sequence in this assay (P40337 whole entry, looked up): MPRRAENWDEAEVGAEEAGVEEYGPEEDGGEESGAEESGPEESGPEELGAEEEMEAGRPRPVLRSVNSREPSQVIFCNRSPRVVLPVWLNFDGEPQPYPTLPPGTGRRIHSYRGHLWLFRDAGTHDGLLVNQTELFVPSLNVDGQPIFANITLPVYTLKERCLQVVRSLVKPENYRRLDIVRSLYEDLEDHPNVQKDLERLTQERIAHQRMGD
Target sequence in this assay (Q8TEK3 whole entry, looked up): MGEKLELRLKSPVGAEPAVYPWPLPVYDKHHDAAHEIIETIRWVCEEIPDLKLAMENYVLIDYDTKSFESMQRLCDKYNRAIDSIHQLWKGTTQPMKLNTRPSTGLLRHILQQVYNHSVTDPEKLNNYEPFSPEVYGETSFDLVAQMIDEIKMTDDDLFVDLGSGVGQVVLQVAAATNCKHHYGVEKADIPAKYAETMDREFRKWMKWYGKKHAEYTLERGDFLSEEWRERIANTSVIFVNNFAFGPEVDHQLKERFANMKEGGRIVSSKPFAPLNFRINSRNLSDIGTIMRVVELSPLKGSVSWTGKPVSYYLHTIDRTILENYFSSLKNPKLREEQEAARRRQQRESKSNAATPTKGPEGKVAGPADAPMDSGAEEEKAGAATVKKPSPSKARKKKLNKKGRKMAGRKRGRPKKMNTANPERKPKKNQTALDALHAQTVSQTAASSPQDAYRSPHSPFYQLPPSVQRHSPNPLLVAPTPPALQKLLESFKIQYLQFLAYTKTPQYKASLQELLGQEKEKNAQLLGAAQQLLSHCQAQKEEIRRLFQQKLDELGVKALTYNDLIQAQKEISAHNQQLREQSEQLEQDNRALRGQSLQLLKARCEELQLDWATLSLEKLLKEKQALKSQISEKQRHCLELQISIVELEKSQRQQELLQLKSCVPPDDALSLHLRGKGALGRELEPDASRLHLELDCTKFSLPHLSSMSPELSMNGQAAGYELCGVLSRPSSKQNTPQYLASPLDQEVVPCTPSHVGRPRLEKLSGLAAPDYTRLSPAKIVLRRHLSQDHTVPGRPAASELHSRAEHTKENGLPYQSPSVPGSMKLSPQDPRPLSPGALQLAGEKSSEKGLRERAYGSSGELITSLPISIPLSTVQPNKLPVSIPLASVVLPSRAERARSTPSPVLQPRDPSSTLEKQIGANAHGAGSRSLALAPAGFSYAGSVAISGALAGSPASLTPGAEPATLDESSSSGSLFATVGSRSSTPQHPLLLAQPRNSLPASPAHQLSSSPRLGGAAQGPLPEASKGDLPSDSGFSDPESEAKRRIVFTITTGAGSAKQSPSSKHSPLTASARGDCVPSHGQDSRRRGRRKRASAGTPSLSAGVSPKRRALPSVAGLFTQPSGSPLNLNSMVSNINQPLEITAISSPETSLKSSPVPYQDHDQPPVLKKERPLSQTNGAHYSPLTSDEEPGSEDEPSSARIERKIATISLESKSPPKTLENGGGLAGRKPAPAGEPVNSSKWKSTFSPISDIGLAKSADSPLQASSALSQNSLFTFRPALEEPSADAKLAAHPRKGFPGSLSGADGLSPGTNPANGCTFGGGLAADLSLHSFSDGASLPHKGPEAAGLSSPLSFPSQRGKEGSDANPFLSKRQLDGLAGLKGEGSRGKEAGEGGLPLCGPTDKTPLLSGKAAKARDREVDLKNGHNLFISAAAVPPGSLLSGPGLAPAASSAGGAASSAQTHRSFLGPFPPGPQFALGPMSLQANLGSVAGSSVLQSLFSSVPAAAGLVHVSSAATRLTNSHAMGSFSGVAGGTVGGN

[2] = target: T1, von Hippel-Lindau disease tumor suppressor/Histone-lysine N-methyltransferase, H3 lysine-79 specific; assay: PROTAC activity at VHL/DOT1L in mixed-lineage leukemia rearranged (MLL-r) human MV4-11 cells assessed as induction of DOT1L degradation incubated for 24 hrs by western blot analysis; assay type: cell-based
[3] = target: T1, von Hippel-Lindau disease tumor suppressor/Histone-lysine N-methyltransferase, H3 lysine-79 specific; assay: PROTAC activity at VHL/DOT1L in mixed-lineage leukemia rearranged (MLL-r) human THP-1 cells assessed as induction of DOTIL degradation by measuring fold change in DOT1L protein level at 3 uM incubated for 1 hr by western blot analysis relative to control; assay type: cell-based
Target sequence in this assay (P40337 whole entry, looked up): as the sequence (P40337 whole entry, looked up) above
Target sequence in this assay (Q8TEK3 whole entry, looked up): as the sequence (Q8TEK3 whole entry, looked up) above

[4] = target: T1, von Hippel-Lindau disease tumor suppressor/Histone-lysine N-methyltransferase, H3 lysine-79 specific; assay: PROTAC activity at VHL/DOT1L in mixed-lineage leukemia rearranged (MLL-r) human MV4-11 cells assessed as induction of DOTIL degradation by measuring fold change in H3K79Me2 level at 3 uM incubated for 1 hr by western blot analysis relative to control; assay type: cell-based
Target sequence in this assay (P40337 whole entry, looked up): as the sequence (P40337 whole entry, looked up) above
Target sequence in this assay (Q8TEK3 whole entry, looked up): as the sequence (Q8TEK3 whole entry, looked up) above

[5] = target: T1, von Hippel-Lindau disease tumor suppressor/Histone-lysine N-methyltransferase, H3 lysine-79 specific; assay: PROTAC activity at VHL/DOT1L in mixed-lineage leukemia rearranged (MLL-r) human MV4-11 cells assessed as induction of DOTIL degradation by measuring fold change in H3K79Me2 level at 3 uM incubated for 24 hrs by western blot analysis relative to control; assay type: cell-based
Target sequence in this assay (P40337 whole entry, looked up): as the sequence (P40337 whole entry, looked up) above
Target sequence in this assay (Q8TEK3 whole entry, looked up): as the sequence (Q8TEK3 whole entry, looked up) above

[6] = target: T1, von Hippel-Lindau disease tumor suppressor/Histone-lysine N-methyltransferase, H3 lysine-79 specific; assay: PROTAC activity at VHL/DOT1L in mixed-lineage leukemia rearranged (MLL-r) human MV4-11 cells assessed as induction of DOTIL degradation by measuring fold change in DOT1L protein level at 3 uM incubated for 48 hrs by western blot analysis relative to control; assay type: cell-based
Target sequence in this assay (P40337 whole entry, looked up): as the sequence (P40337 whole entry, looked up) above
Target sequence in this assay (Q8TEK3 whole entry, looked up): as the sequence (Q8TEK3 whole entry, looked up) above

[7] = target: T1, von Hippel-Lindau disease tumor suppressor/Histone-lysine N-methyltransferase, H3 lysine-79 specific; assay: PROTAC activity against VHL/DOT1L in mixed-lineage leukemia rearranged (MLL-r) human THP-1 cells assessed as induction of DOT1L degradation at 3 uM preincubated with NAE inhibitor, MLN4924 for 1 hr followed by incubation with compound for 8 hrs by western blot analysis; assay type: cell-based
Target sequence in this assay (P40337 whole entry, looked up): as the sequence (P40337 whole entry, looked up) above
Target sequence in this assay (Q8TEK3 whole entry, looked up): as the sequence (Q8TEK3 whole entry, looked up) above

[8] = target: Protein arginine N-methyltransferase 1 (Homo sapiens) (UniProt Q99873); assay: Inhibition of human PRMT1 using histone H4 and SAM as substrate at 10 uM by radiometric Hotspot assay
[9] = target: PRMT5/MEP50 complex (Homo sapiens) (UniProt O14744+Q9BQA1); assay: Inhibition of human PRMT5/MEP50 complex using histone H2A and SAM as substrate at 10 uM by radiometric Hotspot assay; assay type: protein-complex assay

Protein arginine N-methyltransferase 1 (Homo sapiens), sequence (Q99873 whole entry, looked up): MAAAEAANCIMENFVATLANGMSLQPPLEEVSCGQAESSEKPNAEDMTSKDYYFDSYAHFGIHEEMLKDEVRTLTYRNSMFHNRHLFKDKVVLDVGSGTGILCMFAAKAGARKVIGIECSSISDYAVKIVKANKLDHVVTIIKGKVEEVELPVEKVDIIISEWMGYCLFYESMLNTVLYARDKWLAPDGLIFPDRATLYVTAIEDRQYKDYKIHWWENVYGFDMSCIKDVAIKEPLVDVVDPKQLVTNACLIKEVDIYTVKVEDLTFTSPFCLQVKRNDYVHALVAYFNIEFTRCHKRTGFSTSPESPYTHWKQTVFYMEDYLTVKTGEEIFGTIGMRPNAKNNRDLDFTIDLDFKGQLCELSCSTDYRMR

Activity [1]: 69% | Activity [2]: Dose-dependent-effect | DC50 [2]: 25 nM | fold change (FC) [3]: 0.33 | fold change (FC) [4]: 0.34 | fold change (FC) [5]: 0.17 | fold change (FC) [6]: 0.03 | Activity [7]: inactive | inhibition [8]: inactive | inhibition [9]: inactive
Structure (SMILES): Cc1ncsc1-c1ccc([C@H](CC(=O)NCCCCCCNC(=O)COc2nc(N)nc(Nc3cc(S(N)(=O)=O)ccc3N[C@@H](c3cccc4c3OC(F)(F)O4)c3ncccc3Cl)n2)NC(=O)[C@@H]2C[C@@H](O)CN2C(=O)[C@@H](NC(=O)C2(F)CC2)C(C)(C)C)cc1
